From the NIST ThermoML archive (doi:10.1021/je030151s)

Assay: xn = mol fraction of the nth substance listed
Conditions: 101.3 kPa, Liquid; for viscosity: Capillary tube (Ostwald / Ubbelohde) method

CCC(=O)CC [pentan-3-one] + CCc1ccccc1
Conditions | mass density, 293.15 K [kg/m3] | mass density, 303.15 K [kg/m3] | mass density, 313.15 K [kg/m3] | speed of sound, 293.15 K [m/s] | speed of sound, 303.15 K [m/s] | speed of sound, 313.15 K [m/s] | viscosity, 293.15 K [mPa·s] | viscosity, 303.15 K [mPa·s] | viscosity, 313.15 K [mPa·s]
x1 = 0.0911 | 867 | 855.9 | 848.3 | 1328.5 | 1290.2 | 1254.5 | 0.6538 | 0.5795 | 0.5116
x1 = 0.2055 | 865.5 | 855.1 | 847 | 1319 | 1281.9 | 1246.6 | 0.625 | 0.5539 | 0.4881
x1 = 0.3176 | 863.2 | 852.8 | 844.5 | 1309.6 | 1272.2 | 1237.2 | 0.6015 | 0.5281 | 0.4642
x1 = 0.4296 | 860.1 | 849.9 | 840.8 | 1298 | 1264.5 | 1227.2 | 0.5789 | 0.5046 | 0.4429
x1 = 0.5331 | 854.8 | 845.3 | 836.6 | 1287 | 1252.3 | 1217.5 | 0.5574 | 0.486 | 0.4247
x1 = 0.6387 | 848.5 | 839.6 | 830.6 | 1275 | 1242 | 1206 | 0.534 | 0.469 | 0.411
x1 = 0.7378 | 842.5 | 833.4 | 824.5 | 1263 | 1230 | 1195 | 0.516 | 0.454 | 0.399
x1 = 0.8322 | 835 | 826.8 | 817.5 | 1251 | 1217.5 | 1184.4 | 0.4975 | 0.441 | 0.388
x1 = 0.9245 | 826 | 818 | 808 | 1240.3 | 1206.6 | 1172.5 | 0.4811 | 0.4309 | 0.38
x1 = 1 | 814.4 | 804.7 | 794.9 | 1230.7 | 1197.8 | 1159.1 | 0.4714 | 0.4231 | 0.3799

CCC(=O)CC [pentan-3-one] + Cc1ccccc1C
Conditions | mass density, 293.15 K [kg/m3] | mass density, 303.15 K [kg/m3] | mass density, 313.15 K [kg/m3] | speed of sound, 293.15 K [m/s] | speed of sound, 303.15 K [m/s] | speed of sound, 313.15 K [m/s] | viscosity, 293.15 K [mPa·s] | viscosity, 303.15 K [mPa·s] | viscosity, 313.15 K [mPa·s]
x1 = 0.0955 | 878 | 870.5 | 862.4 | 1357 | 1328 | 1287.6 | 0.7649 | 0.677 | 0.5965
x1 = 0.2073 | 875 | 868.5 | 859.4 | 1345.1 | 1315 | 1277 | 0.7182 | 0.638 | 0.565
x1 = 0.3191 | 871.1 | 863.1 | 855 | 1333.5 | 1303 | 1262 | 0.675 | 0.6003 | 0.533
x1 = 0.4298 | 865.3 | 857.3 | 848.8 | 1318.8 | 1287 | 1251 | 0.636 | 0.562 | 0.502
x1 = 0.5338 | 859.5 | 850.5 | 842.5 | 1306 | 1272 | 1238 | 0.6001 | 0.5271 | 0.474
x1 = 0.6363 | 852.1 | 844 | 835.5 | 1292.2 | 1255.8 | 1224 | 0.568 | 0.497 | 0.447
x1 = 0.7329 | 845 | 837.3 | 827.9 | 1279.4 | 1245 | 1208.3 | 0.537 | 0.4719 | 0.424
x1 = 0.8283 | 836.8 | 829.1 | 819.9 | 1266.2 | 1229 | 1194 | 0.51 | 0.4481 | 0.4034
x1 = 0.9242 | 826.3 | 817 | 808.2 | 1250.9 | 1213 | 1179.3 | 0.4882 | 0.4333 | 0.3872
x1 = 1 | 814.4 | 804.7 | 794.9 | 1230.7 | 1197.8 | 1159.1 | 0.4714 | 0.4231 | 0.3799
